From PubChem BioAssay (NCI)
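Five concentrations, 48 hours, 96-well plates. The concentration for full growth arrest is given as TGI.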

Columns and labels:
Test in all cases: growth of human tumour cells (NCI), 48 h
SF-539 CNS = system: SF-539 CNS
ACHN renal = system: ACHN renal
UACC-62 melanoma = system: UACC-62 melanoma
K-562 leukemia = system: K-562 leukemia
MOLT-4 leukemia = system: MOLT-4 leukemia
SNB-75 CNS = system: SNB-75 CNS
SK-MEL-28 melanoma = system: SK-MEL-28 melanoma
NCI-H522 lung = system: NCI-H522 lung
T-47D breast = system: T-47D breast
NCI-H460 lung = system: NCI-H460 lung
786-0 renal = system: 786-0 renal
DU-145 prostate = system: DU-145 prostate
OVCAR-8 ovarian = system: OVCAR-8 ovarian
U251 CNS = system: U251 CNS
MDA-MB-231 breast = system: MDA-MB-231 breast
RXF 393 renal = system: RXF 393 renal
PC-3 prostate = system: PC-3 prostate
MDA-MB-435 = system: MDA-MB-435
LOX IMVI melanoma = system: LOX IMVI melanoma

| SMILES | TGI (SF-539 CNS) [µM] | TGI (ACHN renal) [µM] | TGI (UACC-62 melanoma) [µM] | TGI (K-562 leukemia) [µM] | TGI (MOLT-4 leukemia) [µM] | TGI (SNB-75 CNS) [µM] | TGI (SK-MEL-28 melanoma) [µM] | TGI (NCI-H522 lung) [µM] | TGI (T-47D breast) [µM] | TGI (NCI-H460 lung) [µM] | TGI (786-0 renal) [µM] | TGI (DU-145 prostate) [µM] | TGI (OVCAR-8 ovarian) [µM] | TGI (U251 CNS) [µM] | TGI (MDA-MB-231 breast) [µM] | TGI (RXF 393 renal) [µM] | TGI (PC-3 prostate) [µM] | TGI (MDA-MB-435) [µM] | TGI (LOX IMVI melanoma) [µM] |
| --- | --- | --- | --- | --- | --- | --- | --- | --- | --- | --- | --- | --- | --- | --- | --- | --- | --- | --- | --- |
| CC1C2CC(CC2(C)O)C1(C)C (stereo unspecified) | > 100 | > 100 | > 100 | > 100 | > 100 | > 100 | > 100 | > 100 | > 100 | > 100 | > 100 | > 100 | > 100 | > 100 | > 100 | > 100 | > 100 |  |  |
| COc1cc2c(c(O)c1OC)C(=O)[C@@H]1CCC(=O)N1C2c1ccccc1 (stereo partly specified) | > 100 | > 100 | > 100 | > 100 | > 100 | > 100 | > 100 | > 100 | > 100 | > 100 | > 100 | > 100 | > 100 | > 100 |  |  | > 100 | > 100 | > 100 |
| O=C1C2CCCCC2C(=O)N1n1c(-c2ccccc2)n[nH]c1=O (stereo unspecified) | > 100 | > 100 | > 100 | > 100 | > 100 | > 100 |  | > 100 | > 100 | > 100 | > 100 |  | > 100 | > 100 | > 100 | > 100 | > 100 | > 100 | > 100 |
| CC(C)(Oc1ccc(Cl)cc1)C(=O)N(C(=O)N1CCCCC1)c1ccccc1 | 25.3 | 28.1 | 27.5 | > 100 | 84.8 |  | 44.6 |  | 9.68 |  | 27.6 | 27.8 | 31.4 | 39.2 | 25.5 | 33.3 | 20 | > 100 | 26.6 |
| Oc1[nH]c(=S)[nH]c1/C=C1/C(c2ccccc2)=Nc2ccccc21 | 31.2 | 78 | 26.4 | 33.7 | 32.1 | 28.8 | 30.3 | 26.3 |  | 27.6 | 28.4 |  | 28.8 | 34.9 | 33.5 | 28.7 | 25.6 | 26.7 | 24.3 |
| O=C(O)c1ccccc1CC1Cc2cc3c(cc2C1)CCC3 | > 100 | > 100 | > 100 | > 100 | > 100 | > 100 | > 100 | > 100 | 85.6 | > 100 | > 100 | > 100 | > 100 | > 100 | > 100 | > 100 |  | > 100 | > 100 |
| CC(=O)Nc1ccc(C(=O)NN2C(=O)CSC2c2ccc(O)cc2)cc1 (stereo unspecified) | > 100 | > 100 | > 100 | > 100 | > 100 | > 100 | > 100 |  | > 100 | > 100 | > 100 | > 100 | > 100 | > 100 | > 100 | > 100 |  | > 100 |  |
| CC(C)(C)C1CCC2c3c([nH]c4ccccc34)C3C(=O)N(c4ccccc4Cl)C(=O)C3C2C1 (stereo unspecified) |  | 70.2 | 45.4 | > 100 | > 100 |  |  |  |  | 15.8 | 27.7 | 42.7 | 50 | 50.6 | 24.6 | 33.3 | 28 | > 100 | 28.5 |
| Cc1ccc(Cc2nn(C)c(=O)n2N)cc1 | > 100 | > 100 | > 100 | > 100 |  |  | > 100 |  | > 100 | > 100 | > 100 | > 100 | > 100 | > 100 | > 100 |  | > 100 | > 100 | > 100 |
| COc1cc(CC2c3cc(OC)c(OC)cc3CCN2C)ccc1O (stereo unspecified) | > 100 | > 100 |  | > 100 | > 100 | > 100 | > 100 | > 100 |  | > 100 | > 100 |  | > 100 | > 100 |  |  |  |  |  |
| CNC1c2ccccc2C(=O)c2cc3c(cc21)OCCOCCOCCOCCO3 (stereo unspecified) | > 100 | > 100 |  | > 100 | 92.2 | > 100 | > 100 | > 100 | > 100 | > 100 | > 100 |  | > 100 | > 100 | > 100 |  | > 100 | > 100 |  |
| CC12CCC(=O)N1c1cncnc1N2 (stereo unspecified) | > 10 | > 10 | > 10 | > 10 | > 10 | > 10 |  | > 10 |  | > 10 | > 10 | > 10 | > 10 | > 10 |  |  | > 10 | > 10 | > 10 |
| CC(C)(C)C1CCC2c3c([nH]c4ccccc34)C3C(=O)N(c4ccccc4[N+](=O)[O-])C(=O)C3C2C1 (stereo unspecified) | 61.3 | 61.3 | 28.2 | 27.8 |  |  |  |  |  | 27.6 | 28.9 | 22.4 | > 100 | 40.3 | 27.2 | 19 | 26.1 | > 100 | 31.4 |
| COc1ccc(C(=O)c2c3cc(OC)c(OC)c(OC)c3cc[n+]2C)cc1 |  | > 100 |  | > 100 | > 100 | 95.7 | > 100 | 62.4 |  | > 100 | 33.5 |  | > 100 | > 100 |  | > 100 |  |  |  |
| COC(=O)[C@@]1(C)C(=O)CC[C@@H]1C=O | > 100 | > 100 | > 100 | > 100 | > 100 |  |  | > 100 |  | > 100 | > 100 |  | > 100 | > 100 |  |  |  |  | > 100 |
| COc1ccc2nc3c([N+](=O)[O-])ccc4c3c(c2c1)NCCN4CCN(C)C | 1.71 | 1.66 | 1.96 | > 10 | 7.67 | 1.57 | 3.08 |  |  | 1.46 | 1.79 | 4.91 | > 10 | 2.54 | 1.88 | 2.38 | 1.86 | 3.49 | 1.45 |
| O=c1[nH]c(N/N=C\C(=N/Nc2nc3ccccc3c(=O)[nH]2)C(O)C(O)C(O)CO)nc2ccccc12 (stereo unspecified) | > 100 | > 100 | > 100 | > 100 | > 100 | > 100 | > 100 |  | > 100 | > 100 | > 100 | > 100 | > 100 | > 100 | > 100 |  | > 100 | > 100 | > 100 |
| Cc1ccc(OCC2OC(n3cnc4nc(Nc5ccc(Cl)c(Cl)c5)nc(Cl)c43)CC2Oc2ccc(C)cc2)cc1 (stereo unspecified) |  | > 100 | > 100 | > 100 | > 100 | > 100 | > 100 |  | > 100 | > 100 | > 100 | > 100 | > 100 | > 100 | > 100 | > 100 | > 100 | > 100 |  |
| CCOC(=O)C1=C(C)NC2=C(C(=O)N(c3ccccc3)C2c2ccccc2)C1c1ccccc1 (stereo unspecified) | 33.1 | 27 | 26.7 | > 100 | 56.2 | 26.6 | 34.8 | 25.9 |  |  | 35.8 |  | 53.4 | 29.3 |  |  |  |  | 34.4 |
| CSc1nn(C)cc2ncnc1-2 | > 100 | > 100 | > 100 | > 100 | > 100 | 64 | > 100 |  | > 100 | > 100 | > 100 | > 100 | > 100 | > 100 | > 100 | > 100 | > 100 | > 100 |  |
| O=c1cc(NNCc2ccccc2)[nH]c(=O)[nH]1 | > 100 | > 100 |  | > 100 | > 100 |  | > 100 |  | 67 | > 100 | > 100 | > 100 | > 100 | > 100 | > 100 | > 100 | > 100 | > 100 | > 100 |
| O=C(Cc1ccccc1)NN1C(=O)/C(=C\c2cccc([N+](=O)[O-])c2)SC1=Nc1ccccc1 | > 100 | > 100 | > 100 | > 100 | > 100 | > 100 | > 100 |  | > 100 | > 100 | > 100 | > 100 | > 100 | > 100 | > 100 | > 100 |  | > 100 |  |
| CC(=O)c1cc2c(s1)C(=O)c1sccc1C2=O | 0.0348 |  | 0.0898 | 0.174 | 0.292 | 0.0491 |  | 0.0521 | 0.7 | 0.211 | 0.421 | 0.0995 | 0.227 | 0.0556 | 0.151 | 0.0919 | 0.133 |  | 0.0249 |
